# Measurements as given in patent publication US6579861B2, “1α-hydroxy-2-methylene-19-nor-homopregnacalciferol and its uses” (Wisconsin Alumni Research Foundation, priority 2000, dated 2003).
# Entries after “also recorded” stand apart in the source; their conditions may differ.
# Experiments:
# Sprague-Dawley rats [1] = experiment: Pre-dose and post-dose serum calcium (bone mobilization) after a single oral dose in rats; type: in vivo, rat; settings: average of 6 rats; for Post-Dose serum calcium: about 24 h after a single 1 nmol oral dose (gavage, vegetable oil); for Pre-Dose serum calcium: baseline, about 24 h before sacrifice, before the 1 nmol oral dose
# Protocol: Weanling, male Sprague-Dawley rats (6/group) were placed on a vitamin D-deficient diet for a total of 5 weeks. During the first three weeks, the animals were fed a normal calcium diet (Diet 11+0.47% Ca+AEK supplement) and the last two weeks they were fed a low calcium diet (Diet 11+0.02% Ca+AEK supplement). Approximately 24 hours prior to sacrifice, animals were tail bled and then dosed with 1 nmol of the respective compounds. The doses were delivered orally in 100 microliters of vegetable oil by gavage. Serum was collected approximately 24 hour post-dose and it, along with the pre-dose serum, were subjected to total calcium analysis using atomic absorption spectrometry.
# [2] = target: T1, vitamin D pig intestinal nuclear receptor (Sus scrofa, UniProt A3RGC1); experiment: Competitive binding of [3H]-1,25-(OH)2-D3 to the porcine intestinal vitamin D receptor; settings: FIG. 1, result in words
# T1 construct: from tissue; host or cells: pig intestine (nuclear receptor preparation)
# T1 sequence (A3RGC1 1-427): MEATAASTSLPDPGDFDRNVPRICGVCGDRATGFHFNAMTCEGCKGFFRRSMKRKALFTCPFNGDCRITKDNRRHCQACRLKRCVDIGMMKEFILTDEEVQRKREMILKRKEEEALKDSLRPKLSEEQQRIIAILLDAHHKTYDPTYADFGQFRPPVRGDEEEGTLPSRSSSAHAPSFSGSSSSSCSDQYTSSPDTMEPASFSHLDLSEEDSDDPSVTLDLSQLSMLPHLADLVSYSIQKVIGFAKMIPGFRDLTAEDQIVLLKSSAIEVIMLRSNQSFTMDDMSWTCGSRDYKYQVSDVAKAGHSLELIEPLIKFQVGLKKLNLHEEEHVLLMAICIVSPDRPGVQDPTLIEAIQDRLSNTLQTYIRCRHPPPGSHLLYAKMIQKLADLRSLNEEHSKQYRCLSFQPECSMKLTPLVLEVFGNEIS
# Text: FIG. 1 is a graph illustrating the relative activity of 1α-hydroxy-2-methylene-19-nor-homopregnacalciferol and 1α,25-dihydroxyvitamin D3 to compete for binding of [^3H]-1,25-(OH)2-D3 to the vitamin D pig intestinal nuclear receptor;
# The introduction of a methylene group to the 2-position of 1α-hydroxy-19-nor-homopregnacalciferol had little or no effect on binding to the porcine intestinal vitamin D receptor, as compared to 1α,25-dihydroxyvitamin D3.
# Competitive binding of the analogs to the porcine intestinal receptor was carried out by the method described by Dame et al (Biochemistry 25, 4523-4534, 1986).
# Sprague-Dawley rats [3] = experiment: Intestinal calcium transport after chronic i.p. doses in vitamin D-deficient rats; type: in vivo, rat; settings: for Intestinal Calcium Transport (S/M): vitamin D-deficient rats, low Ca diet, average ± SE, 5 animals
# Protocol: (§1) Male, weanling Sprague-Dawley rats were placed on Diet 11 (0.47% Ca) diet+AEK for 11 days, followed by Diet 11 (0.02% Ca)+AEK for 31 days. Dosing (i.p.) began 7 days prior to sacrifice. Doses were given on a daily basis, 24 hours apart. The first 10 cm of the intestine was collected for gut transport studies and serum was collected for bone Ca mobilization analysis. The results are reported in Table 1 and illustrated in the graph of FIG. 2.
# Sprague-Dawley rats [4] = experiment: Serum calcium (bone calcium mobilization) after chronic i.p. doses in vitamin D-deficient rats; type: in vivo, rat; settings: for Serum Calcium (bone calcium mobilization): vitamin D-deficient rats, low Ca diet, average ± SE, 5 animals
# Protocol: as §1
# HL-60 cells = experiment: Differentiation of HL-60 promyelocytes into monocytes; type: cell-based; settings: FIG. 4; result in words
# Protocol: FIG. 4 is a graph illustrating the percent HL-60 cell differentiation as a function of the concentration of 1α-hydroxy-2-methylene-19-nor-homopregnacalciferol and of 1α,25-dihydroxyvitamin D3;
# The differentiation of HL-60 promyelocytic into monocytes was determined as described by Ostrem et al (J. Biol. Chem. 262, 14164-14171, 1987).
# [5] = test system: 24-hydroxylase (240Hase) gene promoter in ROS 17/2.8 (bone) cells; experiment: Transcriptional activity, 24-hydroxylase promoter luciferase reporter in bone cells; type: cell-based
# Protocol: (§2) Transcriptional activity was measured in two different cell lines. ROS 17/2.8 (bone) or LLC (kidney) cells were stably transfected with a 24-hydroxylase (240Hase) gene promoter upstream of a luciferase reporter gene (Arbour et al, 1998). Cells were given a range of doses. Sixteen hours after dosing the cells were harvested and luciferase activities were measured using a luminometer. The EC50 of 1α-hydroxy-2-methylene-19-nor-homopregnacalciferol is about 10 times lower in bone cells than kidney cells. […] The graphs of FIGS. 5 and 6 are representative of 4 to 5 independent experiments. In FIGS. 5 and 6, RLU means relative luciferase units.
# [6] = test system: 24-hydroxylase (240Hase) gene promoter in LLC (kidney) cells; experiment: Transcriptional activity, 24-hydroxylase promoter luciferase reporter in kidney cells; type: cell-based; settings: 16 h after dosing, FIG. 6, result in words
# Protocol: as §2
# [7] = listed as 1α-hydroxy-2-methylene-19-nor-homopregnacalciferol
"Binding to the vitamin D receptor compared to 1,25-(OH)2D3 ([2]; listed as 2 MHP)","EC50 in bone cells relative to kidney cells (times lower) ([5]; ROS 17/2.8 (bone) versus LLC (kidney) cells, luciferase reporter)",SMILES,Post-Dose serum calcium (Sprague-Dawley rats [1]) [mg/dL],Pre-Dose serum calcium (Sprague-Dawley rats [1]) [mg/dL],"Binding to the vitamin D receptor compared to 1,25-(OH)2D3 [2, 7]",Intestinal Calcium Transport (S/M) (Sprague-Dawley rats [3]; 250 pmol/day/7 days i.p.),Intestinal Calcium Transport (S/M) (Sprague-Dawley rats [3]; 500 pmol/day/7 days i.p.),"Intestinal calcium transport activity compared to 1,25(OH)2D3 (Sprague-Dawley rats [3]; Table 1 and FIG. 2, result in words)",Serum Calcium (bone calcium mobilization) (Sprague-Dawley rats [4]; 250 pmol/day/7 days i.p.) [mg/100 ml],Serum Calcium (bone calcium mobilization) (Sprague-Dawley rats [4]; 500 pmol/day/7 days i.p.) [mg/100 ml],"Bone calcium mobilization activity (raising serum calcium) compared to 1,25(OH)2D3 (Sprague-Dawley rats [4]; Table 1, FIG. 3 and FIG. 7, result in words)","HL-60 differentiation potency compared to 1,25(OH)2D3 (HL-60 cells)","Transcriptional activity in bone cells ([5]; ROS 17/2.8 cells, 16 h after dosing, FIG. 5, result in words)","Transcriptional activity in kidney cells [6, 7]",Transcriptional activity in kidney cells ([6]; listed as 2 MHP)
,,"C=C1[C@H](O)CC(=C/C=C2\CCC[C@]3(C)[C@@H]([C@@H](C)CCCC(C)(C)O)CC[C@@H]23)C[C@H]1O [2-methylene-19-nor-20(S)-1α,25-dihydroxyvitamin D3]",7.33,4.45,,,,,,,,,,,
"slightly less active than 1,25(OH)2D3",about 10 times,"C=C1[C@H](O)CC(=C/C=C2\CCC[C@@]3(C)C2CCC3C(C)C)C[C@H]1O (stereo partly drawn) [2MHP, 1α-hydroxy-2-methylene-19-nor-homopregnacalciferol]",4.36,4.86,"bound equally well to the porcine receptor as compared to the standard 1,25-(OH)2D3",3.22 ± 0.14,3.90 ± 0.38,"very little activity; also recorded: significantly less than that of 1,25-(OH)2D3",4.84 ± 0.37,3.96 ± 0.19,"very little bone calcium mobilization activity; also recorded: significantly less potent than 1,25(OH)2D3","almost as potent as 1,25(OH)2D3; also recorded: only slightly less active than 1,25-(OH)2D3",has transcriptional activity in bone cells; also recorded: significant transcriptional activity,"greater than or equivalent to 1,25(OH)2D3",has transcriptional activity in kidney cells; also recorded: significant transcriptional activity
,,"C=C1/C(=C\C=C2/CCC[C@]3(C)[C@@H]([C@H](C)CCCC(C)(C)O)CC[C@@H]23)C[C@@H](O)C[C@@H]1O [1,25-(OH)2D3, 1α,25-dihydroxyvitamin D3, reference compound]",5.42,4.51,,5.21 ± 0.73,6.85 ± 0.79,,7.40 ± 0.47,7.20 ± 0.33,,,,,
